Legend:
Neratinib/HKI272 [1] = compound: T1, CCOc1cc2ncc(C#N)c(Nc3ccc(OCc4ccccn4)c(Cl)c3)c2cc1NC(=O)/C=C/CN(C)C [Neratinib/HKI272]; test: GR value, 72 h; higher = faster growth (1 = untreated, <0 = killing);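 also: breast cancer and non-malignant breast epithelial lines, nine half-log doses, viable cells counted by Hoechst and LIVE/DEAD dye imaging versus time-zero plates and DMSO controls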
Flavopiridol = compound: CN1CC[C@H](c2c(O)cc(O)c3c(=O)cc(-c4ccccc4Cl)oc23)[C@H](O)C1 [Flavopiridol]; test: as above
YKL-5-124 = compound: C=CC(=O)Nc1ccc(C(=O)Nc2[nH]nc3c2CN(C(=O)N[C@H](CN(C)C)c2ccccc2)C3(C)C)cc1 [YKL-5-124]; test: increase in dead-cell fraction, 72 h; higher = more death;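 also: breast cancer cell lines in 384-well plates, stained with Hoechst plus LIVE/DEAD far red dye and imaged, cells above an LDR intensity threshold counted dead, Hoechst-negative corpses included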
[2] = compound: CCc1cnn2c(NCc3ccc[n+]([O-])c3)cc(N3CCCC[C@H]3CCO)nc12; test: as above
BSJ-03-123 = compound: CC(=O)c1c(C)c2cnc(Nc3ccc(N4CCN(CCOCCOCCOCCNC(=O)COc5cccc6c5C(=O)N(C5CCC(=O)NC5=O)C6=O)CC4)cn3)nc2n(C2CCCC2)c1=O [BSJ-03-123]; test: as above
Neratinib/HKI272 [3] = compound: T1, Neratinib/HKI272; test: as above

Cell Line: HCC1143
- GR value (Neratinib/HKI272 [1]; 0.0003162 µM): 0.964 GR
- GR value (Neratinib/HKI272 [1]; 0.001 µM): 0.951 GR
- GR value (Neratinib/HKI272 [1]; 0.003162 µM): 0.941 GR
- GR value (Neratinib/HKI272 [1]; 0.01 µM): 0.864 GR
- GR value (Neratinib/HKI272 [1]; 0.03162 µM): 0.876 GR
- GR value (Neratinib/HKI272 [1]; 0.1 µM): 0.761 GR
- GR value (Neratinib/HKI272 [1]; 0.3162 µM): 0.654 GR
- GR value (Neratinib/HKI272 [1]; 1 µM): 0.458 GR
- GR value (Neratinib/HKI272 [1]; 3.162 µM): 0.0904 GR
- GR value (Flavopiridol; 0.0001 µM): 1 GR
- GR value (Flavopiridol; 0.0003162 µM): 1.04 GR
- GR value (Flavopiridol; 0.001 µM): 0.952 GR
- GR value (Flavopiridol; 0.003162 µM): 0.964 GR
- GR value (Flavopiridol; 0.01 µM): 0.988 GR
- GR value (Flavopiridol; 0.03162 µM): 0.933 GR
- GR value (Flavopiridol; 0.1 µM): 0.722 GR
- GR value (Flavopiridol; 0.3162 µM): 0.175 GR
- GR value (Flavopiridol; 1 µM): -0.31 GR
- increase in dead-cell fraction (YKL-5-124; 0.001 µM): 0.0369
- increase in dead-cell fraction (YKL-5-124; 0.003162 µM): 0.0319
- increase in dead-cell fraction (YKL-5-124; 0.01 µM): 0.0518
- increase in dead-cell fraction (YKL-5-124; 0.03162 µM): 0.0428
- increase in dead-cell fraction (YKL-5-124; 0.1 µM): 0.0477
- increase in dead-cell fraction (YKL-5-124; 0.3162 µM): 0.0836
- increase in dead-cell fraction (YKL-5-124; 1 µM): 0.0896
- increase in dead-cell fraction (YKL-5-124; 3.162 µM): 0.0668
- increase in dead-cell fraction (YKL-5-124; 10 µM): 0.121
- increase in dead-cell fraction ([2]; 0.0001 µM): -0.0025
- increase in dead-cell fraction ([2]; 0.0003162 µM): -0.0033
- increase in dead-cell fraction ([2]; 0.001 µM): 0.0002
- increase in dead-cell fraction ([2]; 0.003162 µM): -0.0039
- increase in dead-cell fraction ([2]; 0.01 µM): 0.006
- increase in dead-cell fraction ([2]; 0.03162 µM): 0.248
- increase in dead-cell fraction ([2]; 0.1 µM): 0.258
- increase in dead-cell fraction ([2]; 0.3162 µM): 0.254
- increase in dead-cell fraction ([2]; 1 µM): 0.239
- increase in dead-cell fraction (BSJ-03-123; 0.001 µM): 0.0033
- increase in dead-cell fraction (BSJ-03-123; 0.003162 µM): 0.0019
- increase in dead-cell fraction (BSJ-03-123; 0.01 µM): -0.0022
- increase in dead-cell fraction (BSJ-03-123; 0.03162 µM): -0.0018
- increase in dead-cell fraction (BSJ-03-123; 0.1 µM): 0.0104
- increase in dead-cell fraction (BSJ-03-123; 0.3162 µM): 0.011
- increase in dead-cell fraction (BSJ-03-123; 1 µM): 0.0065
- increase in dead-cell fraction (BSJ-03-123; 3.162 µM): 0.0186
- increase in dead-cell fraction (BSJ-03-123; 10 µM): 0.102
- increase in dead-cell fraction (Neratinib/HKI272 [3]; 0.0003162 µM): 0.003
- increase in dead-cell fraction (Neratinib/HKI272 [3]; 0.001 µM): 0.0005
- increase in dead-cell fraction (Neratinib/HKI272 [3]; 0.003162 µM): 0.006
- increase in dead-cell fraction (Neratinib/HKI272 [3]; 0.01 µM): 0.0143
- increase in dead-cell fraction (Neratinib/HKI272 [3]; 0.03162 µM): 0.0116
- increase in dead-cell fraction (Neratinib/HKI272 [3]; 0.1 µM): 0.0306
- increase in dead-cell fraction (Neratinib/HKI272 [3]; 0.3162 µM): 0.0437
- increase in dead-cell fraction (Neratinib/HKI272 [3]; 1 µM): 0.0748
- increase in dead-cell fraction (Neratinib/HKI272 [3]; 3.162 µM): 0.261

Source: the supplement of paper PMC9663587
